Assay results published in patent publication KR20170076438A, “필리게닌을 포함하는 피부상태 개선용 조성물” (주식회사 엘지생활건강, priority 2015, dated 2017).

Tests used:
[1] = tested on: type I collagen [제1형 콜라겐(type I collagen)]; experiment: Type I collagen synthesis in human-derived fibroblasts (PICP EIA kit); assay type: cell-based; conditions: 48 h culture, n=4; for type I collagen synthesis amount: negative control 150.2; for increase rate (type I collagen synthesis): relative to untreated control
[2] = tested on: nitric oxide (NO) production in RAW264.7 cells [RAW264.7 세포주, Nitric oxide(NO)]; experiment: NO production inhibition in LPS-stimulated RAW264.7 cells (GRIESS method); assay type: cell-based; conditions: Mus musculus, LPS 1 μg, 24 h, 540 nm, read-out: NO production inhibition rate
[3] = tested on: B-16 mouse melanoma cell [쥐의 멜라노마 세포(B-16 mouse melanoma cell)]; experiment: Total melanin amount in B-16 mouse melanoma cells; assay type: cell-based; conditions: 3 days; for melanin production amount: absorbance at 400 nm per 1×10^6 cells, DMSO control 0.33
[4] = Anti-glycation assay (L-arginine and glucose, absorbance at 420 nm); assay type: biochemical; conditions: pH 7.4, 70 ℃, 4 h, 0.1 M glucose
[5] = molecular target: T1, elastase [엘라스테이즈(Elastase)] (Homo sapiens, UniProt P08246); experiment: Elastase activity inhibition (human leukocyte elastase, MeOSuc-Ala-Ala-Pro-Val-pNA); assay type: biochemical; conditions: for enzyme activity: slope of absorbance at 405 nm vs time, room temperature, 20 min, n=3, DMSO control 10.4
T1 construct: 엘라스테이즈(Elastase)는 사람의 백혈구 세포로부터 유래한 엘라스테이즈를 사용하였고; from tissue; host or cells: human leukocytes (사람의 백혈구 세포)
T1 sequence (P08246 30-267): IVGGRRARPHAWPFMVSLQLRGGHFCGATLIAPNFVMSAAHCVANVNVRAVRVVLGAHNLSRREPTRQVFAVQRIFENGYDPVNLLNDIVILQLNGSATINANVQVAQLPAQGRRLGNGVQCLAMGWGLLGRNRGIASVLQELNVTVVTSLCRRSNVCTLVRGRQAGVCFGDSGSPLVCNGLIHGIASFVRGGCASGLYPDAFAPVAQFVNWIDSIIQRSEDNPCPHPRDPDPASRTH

[6] = Mus musculus, 72 h, 10 ppm, relative to control, read-out: increase rate (total melanin)
[7] = pH 7.5, read-out: inhibition rate (elastase)

## O=C1O[C@H]([C@@H](O)CO)C(O)=C1O [비타민 C, reference compound]
[1]; 52.85 ppm (52.85 ㎍/ml)
  type I collagen synthesis amount: 246.8 ng/mL
  increase rate (type I collagen synthesis): 64.3%

## CNC(=N)NCCC[C@H](N)C(=O)O [L-NMMA, L-NG-Monomethylarginine, reference compound]
[2]
  inhibition at 10 ppm: 41%

## C=C[C@@]1(C)CC(=O)[C@]2(O)[C@@]3(C)[C@@H](O)CCC(C)(C)[C@@H]3[C@H](O)[C@H](OC(C)=O)[C@@]2(C)O1 [Forskolin, reference compound]
[3]; 10 ppm
  melanin production amount: 0.792 abs
[3]; [6]
  activation at 10 ppm: 140%

## N=C(N)NN [Aminoguanidine, reference compound]
[4]; 55 ppm
  inhibition rate (glycation): 54.89%

## COc1cc([C@H]2OC[C@H]3[C@@H]2CO[C@H]3c2ccc(OC)c(OC)c2)ccc1O [화학식1의 화합물, phillygenin]
[1]; 1 ppm
  type I collagen synthesis amount: 187.6 ng/mL
  increase rate (type I collagen synthesis): 24.9%
[1]; 10 ppm
  type I collagen synthesis amount: 234.7 ng/mL
  increase rate (type I collagen synthesis): 56.3%
[5]; 10 ppm
  enzyme activity: 3.9
[5]; 20 ppm
  enzyme activity: 3.5
[5]; [7]
  inhibition at 10 ppm: 62.5%
  inhibition at 20 ppm: 66.3%
[4]; 25 ppm
  inhibition rate (glycation): 32.68%
[4]; 50 ppm
  inhibition rate (glycation): 55.64%
[2]; 1 ppm
  inhibition at 1 ppm: 17.9%
[2]
  inhibition at 10 ppm: 20.6%
[2]; 100 ppm
  inhibition at 100 ppm: 51.7%
[3]; 1 ppm
  melanin production amount: 0.359 abs
[3]; 10 ppm
  melanin production amount: 0.403 abs
[3]; Mus musculus, 72 h, 1 ppm, relative to control, read-out: increase rate (total melanin)
  activation at 1 ppm: 8.79%
[3]; [6]
  activation at 10 ppm: 22.1%
